Results published in ChEMBL document CHEMBL4507274 (2021).

Columns and labels:
[1] = system: Tyrosine-protein kinase ABL1 (Homo sapiens), P00519 [T315I]; settings: Compound concentration 100.0 nM
[2] = target: Activin receptor type-2A (Homo sapiens) (UniProt P27037); settings: Compound concentration 100.0 nM
[3] = target: T1, Aurora kinase A (Homo sapiens) (UniProt O14965); settings: Compound concentration 100.0 nM
T1 sequence (whole entry): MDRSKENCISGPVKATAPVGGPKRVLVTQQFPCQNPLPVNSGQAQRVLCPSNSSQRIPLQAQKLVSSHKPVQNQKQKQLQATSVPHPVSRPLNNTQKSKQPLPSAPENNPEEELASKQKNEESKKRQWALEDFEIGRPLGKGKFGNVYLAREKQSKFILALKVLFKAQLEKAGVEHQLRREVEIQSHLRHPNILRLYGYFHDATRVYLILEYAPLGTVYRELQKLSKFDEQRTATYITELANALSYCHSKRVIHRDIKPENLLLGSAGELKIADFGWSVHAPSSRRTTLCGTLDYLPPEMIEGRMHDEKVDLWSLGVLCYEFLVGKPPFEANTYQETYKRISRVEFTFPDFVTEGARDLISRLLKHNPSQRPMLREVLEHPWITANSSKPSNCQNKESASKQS

[4] = target: Tyrosine-protein kinase BTK (Homo sapiens) (UniProt Q06187); settings: Compound concentration 100.0 nM
[5] = target: Casein kinase I isoform alpha (Homo sapiens) (UniProt P48729); settings: Compound concentration 100.0 nM
[6] = target: Serine/threonine-protein kinase DCLK3 (Homo sapiens) (UniProt Q9C098); settings: Compound concentration 100.0 nM
[7] = target: Serine/threonine-protein kinase MRCK gamma (Homo sapiens) (UniProt Q6DT37); settings: Compound concentration 100.0 nM
[8] = target: Ephrin type-B receptor 1 (Homo sapiens) (UniProt P54762); settings: Compound concentration 100.0 nM
[9] = target: T2, Ephrin type-B receptor 4 (Homo sapiens) (UniProt P54760); settings: Compound concentration 100.0 nM
T2 sequence (whole entry): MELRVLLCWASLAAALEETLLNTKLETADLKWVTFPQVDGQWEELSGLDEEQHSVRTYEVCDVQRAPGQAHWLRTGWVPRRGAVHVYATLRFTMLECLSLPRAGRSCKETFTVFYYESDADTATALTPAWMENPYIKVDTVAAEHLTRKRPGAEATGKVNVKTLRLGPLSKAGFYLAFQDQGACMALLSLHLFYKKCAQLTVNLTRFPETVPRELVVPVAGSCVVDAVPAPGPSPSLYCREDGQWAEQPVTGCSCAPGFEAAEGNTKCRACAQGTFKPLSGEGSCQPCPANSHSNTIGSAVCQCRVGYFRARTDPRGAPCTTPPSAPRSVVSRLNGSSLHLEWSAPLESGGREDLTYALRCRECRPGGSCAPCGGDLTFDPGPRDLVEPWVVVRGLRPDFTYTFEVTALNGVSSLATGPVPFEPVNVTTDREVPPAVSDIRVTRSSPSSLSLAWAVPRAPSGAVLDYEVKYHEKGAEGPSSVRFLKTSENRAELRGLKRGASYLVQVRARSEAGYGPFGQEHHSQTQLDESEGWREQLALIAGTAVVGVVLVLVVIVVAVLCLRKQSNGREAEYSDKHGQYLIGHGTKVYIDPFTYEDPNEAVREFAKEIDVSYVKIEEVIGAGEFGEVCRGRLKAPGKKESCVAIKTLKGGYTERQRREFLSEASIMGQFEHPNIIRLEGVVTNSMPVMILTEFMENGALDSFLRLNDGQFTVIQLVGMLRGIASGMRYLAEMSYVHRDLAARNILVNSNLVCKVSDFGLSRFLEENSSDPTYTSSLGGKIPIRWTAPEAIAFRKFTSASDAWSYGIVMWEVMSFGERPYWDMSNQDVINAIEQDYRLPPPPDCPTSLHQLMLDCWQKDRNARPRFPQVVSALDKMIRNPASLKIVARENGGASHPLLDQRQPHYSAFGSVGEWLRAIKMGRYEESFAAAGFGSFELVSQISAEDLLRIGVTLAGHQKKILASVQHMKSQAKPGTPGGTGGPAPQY

[10] = system: Receptor-type tyrosine-protein kinase FLT3 (Homo sapiens), P36888 [D835Y]; settings: Compound concentration 100.0 nM
[11] = target: Mitogen-activated protein kinase kinase kinase kinase 3 (Homo sapiens) (UniProt Q8IVH8); settings: Compound concentration 100.0 nM
[12] = target: Mitogen-activated protein kinase kinase kinase 10 (Homo sapiens) (UniProt Q02779); settings: Compound concentration 100.0 nM
[13] = target: Serine/threonine-protein kinase MRCK beta (Homo sapiens) (UniProt Q9Y5S2); settings: Compound concentration 100.0 nM
[14] = target: Macrophage-stimulating protein receptor (Homo sapiens) (UniProt Q04912); settings: Compound concentration 100.0 nM
[15] = target: Serine/threonine-protein kinase 38-like (Homo sapiens) (UniProt Q9Y2H1); settings: Compound concentration 100.0 nM
[16] = target: Serine/threonine-protein kinase Nek5 (Homo sapiens) (UniProt Q6P3R8); settings: Compound concentration 100.0 nM
[17] = target: Serine/threonine-protein kinase Nek6 (Homo sapiens) (UniProt Q9HC98); settings: Compound concentration 100.0 nM
[18] = target: Serine/threonine-protein kinase PAK 1 (Homo sapiens) (UniProt Q13153); settings: Compound concentration 100.0 nM
[19] = target: Cyclin-dependent kinase 2 homolog (Plasmodium falciparum (isolate 3D7)) (UniProt P61075); settings: Compound concentration 100.0 nM
[20] = system: Phosphatidylinositol 4,5-bisphosphate 3-kinase catalytic subunit alpha isoform (Homo sapiens), P42336 [H1047Y]; settings: Compound concentration 100.0 nM
[21] = system: Phosphatidylinositol 4,5-bisphosphate 3-kinase catalytic subunit alpha isoform (Homo sapiens), P42336 [Q546K]; settings: Compound concentration 100.0 nM
[22] = target: Serine/threonine-protein kinase Sgk3 (Homo sapiens) (UniProt Q96BR1); settings: Compound concentration 100.0 nM
[23] = target: Serine/threonine-protein kinase ULK2 (Homo sapiens) (UniProt Q8IYT8); settings: Compound concentration 100.0 nM
[24] = target: Serine/threonine-protein kinase ULK3 (Homo sapiens) (UniProt Q6PHR2); settings: Compound concentration 100.0 nM
[25] = target: 5-hydroxytryptamine receptor 1D (Homo sapiens) (UniProt P28221); settings: Compound concentration 10.0 uM
[26] = target: Sigma non-opioid intracellular receptor 1 (Homo sapiens, UniProt Q99720); settings: Compound concentration 10.0 uM
Chain of Sigma non-opioid intracellular receptor 1 (Q99720 whole entry): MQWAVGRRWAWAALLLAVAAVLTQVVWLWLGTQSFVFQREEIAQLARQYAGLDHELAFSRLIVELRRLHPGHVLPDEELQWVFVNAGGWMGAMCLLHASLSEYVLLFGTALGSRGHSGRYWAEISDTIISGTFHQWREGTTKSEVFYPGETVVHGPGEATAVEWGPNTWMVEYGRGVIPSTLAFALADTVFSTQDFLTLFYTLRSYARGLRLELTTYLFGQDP

Chain of Mitogen-activated protein kinase kinase kinase 10 (Homo sapiens) (Q02779 whole entry, looked up): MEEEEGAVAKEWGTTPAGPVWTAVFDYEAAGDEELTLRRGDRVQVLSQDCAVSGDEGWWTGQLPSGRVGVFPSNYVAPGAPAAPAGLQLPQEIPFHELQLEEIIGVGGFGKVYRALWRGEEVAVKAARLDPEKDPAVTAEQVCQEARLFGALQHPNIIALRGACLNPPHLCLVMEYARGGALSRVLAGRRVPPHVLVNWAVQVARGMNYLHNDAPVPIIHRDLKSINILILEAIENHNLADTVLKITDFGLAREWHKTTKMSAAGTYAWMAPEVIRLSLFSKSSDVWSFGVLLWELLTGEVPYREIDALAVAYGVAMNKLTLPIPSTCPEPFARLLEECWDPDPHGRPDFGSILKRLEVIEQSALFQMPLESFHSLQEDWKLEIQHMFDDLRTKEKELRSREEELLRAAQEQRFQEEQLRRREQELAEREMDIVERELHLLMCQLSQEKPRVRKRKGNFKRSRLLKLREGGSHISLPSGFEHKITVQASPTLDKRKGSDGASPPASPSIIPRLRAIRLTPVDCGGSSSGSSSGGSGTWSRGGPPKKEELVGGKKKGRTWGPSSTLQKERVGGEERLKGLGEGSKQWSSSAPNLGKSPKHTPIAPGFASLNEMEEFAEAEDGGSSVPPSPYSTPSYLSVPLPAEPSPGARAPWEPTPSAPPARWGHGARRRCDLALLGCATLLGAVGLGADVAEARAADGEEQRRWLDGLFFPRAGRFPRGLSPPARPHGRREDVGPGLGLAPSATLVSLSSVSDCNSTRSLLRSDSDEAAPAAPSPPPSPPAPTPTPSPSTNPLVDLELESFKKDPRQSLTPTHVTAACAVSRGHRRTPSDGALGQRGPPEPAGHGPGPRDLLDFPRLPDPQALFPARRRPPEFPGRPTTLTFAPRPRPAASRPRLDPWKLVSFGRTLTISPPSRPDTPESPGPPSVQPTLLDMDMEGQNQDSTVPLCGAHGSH
Chain of Serine/threonine-protein kinase ULK3 (Homo sapiens) (Q6PHR2 whole entry): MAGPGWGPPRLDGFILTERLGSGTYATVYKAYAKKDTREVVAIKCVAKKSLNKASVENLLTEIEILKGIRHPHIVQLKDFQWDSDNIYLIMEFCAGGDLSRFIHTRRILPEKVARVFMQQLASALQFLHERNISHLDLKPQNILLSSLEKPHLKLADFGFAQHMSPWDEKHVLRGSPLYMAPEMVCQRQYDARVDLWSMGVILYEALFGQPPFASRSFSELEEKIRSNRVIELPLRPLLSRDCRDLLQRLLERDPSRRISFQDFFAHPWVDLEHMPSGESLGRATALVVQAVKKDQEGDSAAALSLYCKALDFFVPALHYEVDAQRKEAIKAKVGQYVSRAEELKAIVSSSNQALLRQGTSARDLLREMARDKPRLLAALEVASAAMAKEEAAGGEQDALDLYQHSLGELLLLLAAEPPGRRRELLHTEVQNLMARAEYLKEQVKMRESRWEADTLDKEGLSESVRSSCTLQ
Chain of Ephrin type-B receptor 1 (Homo sapiens) (P54762 whole entry): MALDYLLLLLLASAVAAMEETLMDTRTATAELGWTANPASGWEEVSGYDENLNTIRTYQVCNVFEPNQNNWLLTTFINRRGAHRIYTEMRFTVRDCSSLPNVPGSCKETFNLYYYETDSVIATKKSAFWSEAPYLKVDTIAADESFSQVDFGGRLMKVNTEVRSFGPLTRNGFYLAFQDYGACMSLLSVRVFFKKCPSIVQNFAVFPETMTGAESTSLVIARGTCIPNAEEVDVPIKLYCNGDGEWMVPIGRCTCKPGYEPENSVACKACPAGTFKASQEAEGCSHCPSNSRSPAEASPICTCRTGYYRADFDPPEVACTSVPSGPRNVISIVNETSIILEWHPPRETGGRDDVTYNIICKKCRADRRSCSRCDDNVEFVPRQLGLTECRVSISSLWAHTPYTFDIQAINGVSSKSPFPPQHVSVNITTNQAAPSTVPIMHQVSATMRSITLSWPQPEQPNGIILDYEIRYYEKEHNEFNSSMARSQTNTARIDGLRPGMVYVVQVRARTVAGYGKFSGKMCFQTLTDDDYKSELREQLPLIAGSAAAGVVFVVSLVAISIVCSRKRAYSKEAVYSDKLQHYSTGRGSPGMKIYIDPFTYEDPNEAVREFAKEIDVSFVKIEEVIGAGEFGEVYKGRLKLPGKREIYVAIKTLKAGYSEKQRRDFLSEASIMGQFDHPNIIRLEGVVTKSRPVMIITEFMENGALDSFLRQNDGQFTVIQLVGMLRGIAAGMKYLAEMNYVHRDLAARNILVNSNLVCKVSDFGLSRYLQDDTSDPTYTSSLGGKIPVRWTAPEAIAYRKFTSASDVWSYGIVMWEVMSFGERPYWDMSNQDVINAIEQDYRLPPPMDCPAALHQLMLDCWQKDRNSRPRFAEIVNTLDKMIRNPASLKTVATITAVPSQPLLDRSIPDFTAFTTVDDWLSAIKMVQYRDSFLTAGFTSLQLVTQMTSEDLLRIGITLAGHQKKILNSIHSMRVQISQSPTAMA
Chain of Serine/threonine-protein kinase DCLK3 (Homo sapiens) (Q9C098 whole entry): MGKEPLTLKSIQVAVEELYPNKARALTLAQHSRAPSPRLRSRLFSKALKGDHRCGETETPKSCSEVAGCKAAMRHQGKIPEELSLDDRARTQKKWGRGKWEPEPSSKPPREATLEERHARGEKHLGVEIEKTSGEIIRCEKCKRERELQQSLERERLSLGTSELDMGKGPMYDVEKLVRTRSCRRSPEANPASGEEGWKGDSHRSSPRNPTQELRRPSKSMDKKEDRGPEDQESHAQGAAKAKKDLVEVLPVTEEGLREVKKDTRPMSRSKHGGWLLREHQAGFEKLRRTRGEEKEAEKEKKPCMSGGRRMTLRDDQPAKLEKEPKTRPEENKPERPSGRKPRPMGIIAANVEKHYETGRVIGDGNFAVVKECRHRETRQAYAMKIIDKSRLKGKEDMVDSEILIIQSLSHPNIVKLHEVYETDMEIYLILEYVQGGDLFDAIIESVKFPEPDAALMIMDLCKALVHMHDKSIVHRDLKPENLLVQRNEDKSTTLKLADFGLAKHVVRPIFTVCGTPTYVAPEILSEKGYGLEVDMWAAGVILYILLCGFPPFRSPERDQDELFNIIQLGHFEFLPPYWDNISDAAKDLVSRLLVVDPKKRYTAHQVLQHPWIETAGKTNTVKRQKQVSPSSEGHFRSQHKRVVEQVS
Chain of Serine/threonine-protein kinase Nek6 (Homo sapiens) (Q9HC98 whole entry): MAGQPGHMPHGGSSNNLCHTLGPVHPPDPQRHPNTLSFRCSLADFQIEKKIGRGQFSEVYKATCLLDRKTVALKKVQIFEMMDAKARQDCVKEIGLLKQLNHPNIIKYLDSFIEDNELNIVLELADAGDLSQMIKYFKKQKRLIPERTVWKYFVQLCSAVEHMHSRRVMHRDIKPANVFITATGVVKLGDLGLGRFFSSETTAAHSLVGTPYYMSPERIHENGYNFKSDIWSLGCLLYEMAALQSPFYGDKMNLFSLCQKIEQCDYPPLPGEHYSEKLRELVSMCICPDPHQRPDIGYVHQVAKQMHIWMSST
Chain of Serine/threonine-protein kinase Sgk3 (Homo sapiens) (Q96BR1 whole entry): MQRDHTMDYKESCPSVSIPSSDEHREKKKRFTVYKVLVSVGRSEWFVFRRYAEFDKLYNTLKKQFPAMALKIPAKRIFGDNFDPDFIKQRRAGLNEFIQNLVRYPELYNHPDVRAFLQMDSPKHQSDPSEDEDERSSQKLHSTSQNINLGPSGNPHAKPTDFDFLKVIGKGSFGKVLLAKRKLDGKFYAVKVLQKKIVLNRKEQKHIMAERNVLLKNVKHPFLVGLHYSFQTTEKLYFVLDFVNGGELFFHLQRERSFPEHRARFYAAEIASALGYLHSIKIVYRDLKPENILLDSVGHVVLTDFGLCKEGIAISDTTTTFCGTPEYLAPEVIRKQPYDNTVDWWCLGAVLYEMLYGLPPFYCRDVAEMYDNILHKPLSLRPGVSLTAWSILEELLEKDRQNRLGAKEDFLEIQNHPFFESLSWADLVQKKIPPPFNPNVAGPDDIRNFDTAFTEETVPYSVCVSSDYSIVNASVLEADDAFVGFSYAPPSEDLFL
Chain of Mitogen-activated protein kinase kinase kinase kinase 3 (Homo sapiens) (Q8IVH8 whole entry): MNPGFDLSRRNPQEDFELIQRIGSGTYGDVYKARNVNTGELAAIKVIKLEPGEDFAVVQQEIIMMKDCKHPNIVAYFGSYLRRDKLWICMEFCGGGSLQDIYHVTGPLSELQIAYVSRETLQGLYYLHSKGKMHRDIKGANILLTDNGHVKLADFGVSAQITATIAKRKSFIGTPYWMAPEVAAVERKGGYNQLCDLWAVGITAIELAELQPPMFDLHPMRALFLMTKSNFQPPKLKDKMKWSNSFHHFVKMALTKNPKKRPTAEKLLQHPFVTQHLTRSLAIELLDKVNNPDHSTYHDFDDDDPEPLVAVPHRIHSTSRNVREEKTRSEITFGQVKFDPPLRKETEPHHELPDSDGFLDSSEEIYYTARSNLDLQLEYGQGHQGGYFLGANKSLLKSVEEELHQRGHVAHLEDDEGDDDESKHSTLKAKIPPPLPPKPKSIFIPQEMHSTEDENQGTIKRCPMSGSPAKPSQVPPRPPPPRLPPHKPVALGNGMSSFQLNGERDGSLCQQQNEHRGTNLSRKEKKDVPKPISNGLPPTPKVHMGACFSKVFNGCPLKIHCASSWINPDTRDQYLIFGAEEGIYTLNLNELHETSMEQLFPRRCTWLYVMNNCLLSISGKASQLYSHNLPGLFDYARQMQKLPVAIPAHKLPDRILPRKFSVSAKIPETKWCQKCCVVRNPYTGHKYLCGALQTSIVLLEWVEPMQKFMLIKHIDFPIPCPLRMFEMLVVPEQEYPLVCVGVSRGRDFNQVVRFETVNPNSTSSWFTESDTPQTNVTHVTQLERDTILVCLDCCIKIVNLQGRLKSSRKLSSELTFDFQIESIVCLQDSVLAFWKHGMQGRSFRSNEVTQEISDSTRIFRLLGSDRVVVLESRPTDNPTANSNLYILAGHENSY

Structure (SMILES)	residual activity [1]	residual activity [2]	residual activity [3]	residual activity [4]	residual activity [5]	residual activity [6]	residual activity [7]	residual activity [8]	residual activity [9]	residual activity [10]	residual activity [11]	residual activity [12]	residual activity [13]	residual activity [14]	residual activity [15]	residual activity [16]	residual activity [17]	residual activity [18]	residual activity [19]	residual activity [20]	further results
Cn1cc(Cl)c2c(Oc3c(F)cc(Nc4cc(Cl)nc(N)n4)cc3F)ccnc21 [BAY-4900]	84%	87%	100%	84%	93%	89%	100%	96%	100%	99%	100%	100%	100%	87%	100%	100%	100%	100%	68%	62%	residual activity [21]: 76%; residual activity [22]: 90%; residual activity [23]: 100%; residual activity [24]: 85%; inhibition [25]: -5.84%; inhibition [26]: 22.3%
Cc1c[nH]c2nccc(Oc3c(F)cc(Nc4cc(Cl)nc(N)n4)cc3F)c12 [BAY-549]	80%	94%	94%	96%	96%	97%	68%	86%	100%	63%	91%	100%	70%	74%	87%	97%	99%	100%	72%	83%	residual activity [21]: 76%; residual activity [22]: 88%; residual activity [23]: 89%; residual activity [24]: 88%; inhibition [25]: 45%; inhibition [26]: 54.8%
